Measured values published in patent US20090297545A1, “IMMUNOMODULATORY DAIRY PEPTIDES AND USES THEREOF” (Universite Laval, priority 2008, published 2009).

Columns and labels:
murine splenocytes [1] = assay: In vitro murine splenocyte proliferation assay (Alamar Blue), Example III; type: cell-based, BALB/c mice; settings: for Effect on ConA-induced proliferation at low concentrations: 10 and 100 μg/mL; for Effect on ConA-induced proliferation at low concentrations / Effect on splenocyte proliferation in the presence of ConA at higher concentrations: ConA 0.5 μg/mL; for Concentration at which stimulation of resting cell proliferation becomes significant: resting cells, dose-dependent up to 2000 μg/mL
Experimental: In vitro murine splenocyte proliferation assay. The impact of whey peptides on splenocyte proliferation was assessed as follow. Spleens from 6-week-old female BALB/c mice (Charles River, St-Constant, QC, Canada) were removed, mechanically disrupted in complete RPMI-1640 medium (RPMI-1640 medium supplemented with 2 mmol L^−1 L-glutamine (Wisent, St-Bruno, QC, Canada), 10% foetal calf serum (FCS, Wisent), 50 μmol L^−1 mercaptoethanol (Sigma-Aldrich), and 100 μg mL^−1 of penicillin/streptomycin (Wisent), and then filtered through 70 μm cell strainer (BD Falcon, Bedford, Mass., USA) under aseptic conditions. Erythrocytes were lysed by osmotic shock using 0.87% NH4Cl (Sigma-Aldrich) for 2 min at 37° C., then cells were washed 3 times at 4° C. with complete RPMI. They were stained with 0.4% trypan blue (Celigro, Mediatech, Washington, D.C., USA) and counted using a Malassez chamber. The cell suspension was then adjusted to 1.25×10^6 viable cells mL^−1 in RPMI medium.
The cells (100 μL) were added to the wells of 96-well round-bottomed microplates containing 50 μL of RPMI, or 50 μL of peptide solutions. Various concentrations (10-2000 μg mL^−1) of the solutions, which were prepared in complete RPMI and adjusted to pH 7, were added to the wells. The same experiments were also performed in the presence of ConA (0.5 μg mL^−1) to evaluate the effects of the products on ConA-stimulated cells. The microplates with and without ConA were incubated for 72 h and 96 h, respectively. Cell proliferation was evaluated by the reduction of the fluorochrome Alamar Blue™ (BioSource international, Camarillo, Calif., USA), which was added to the wells (20 μL) for the last 24 h of the incubation periods. The fluorescence of the supernatants was monitored at an excitation wavelength of 544 nm and an emission wavelength of […] using a fluorometer (Fluoroscan Ascent, Thermo Electron Inc., Milford, Mass., USA). Data are expressed as a stimulation index (SI).

murine splenocytes [2] = assay: Cytokine profile of splenocyte supernatants, RayBio Mouse Cytokine Antibody Array; type: cell-based, BALB/c mice; settings: peptide 2000 μg/mL + ConA 0.5 μg/mL, 72 h; Cells + ConA = 1
Experimental: Cytokine analyses. After 72 hours, the supernatants from the splenocyte cultures with the cells, cells+ConA (0.5 μg/mL), and each of the peptides (2000 μg/mL) in the presence of ConA (0.5 μg/mL) were collected and stored at −20° C. until used for the cytokine detection assay. A cytokine profile analysis was performed by using the RayBio Mouse Cytokine Antibody Array G series 2 (RayBiotech, Inc., Norcross, Ga.), in order to obtain semi-quantitative levels of 32 different growth factors, cytokines and chemokines (Table 7).
Incubation protocol, signal detection, and interpretation of the data were performed according to manufacturer instructions. Results were expressed as the relative quantity of cytokines detected in the culture supernatants calculated according to the following equation: […]

| Substance | Effect on ConA-induced proliferation at low concentrations (murine splenocytes [1]) | Effect on splenocyte proliferation in the presence of ConA at higher concentrations (murine splenocytes [1]) | Concentration at which stimulation of resting cell proliferation becomes significant (murine splenocytes [1]) [µg/mL] | Relative quantity of IFN-γ in supernatant (murine splenocytes [2]) | Relative quantity of IL-2 in supernatant (murine splenocytes [2]) | Relative quantity of IL-3 in supernatant (murine splenocytes [2]) | Relative quantity of IL-4 in supernatant (murine splenocytes [2]) | Relative quantity of IL-17 in supernatant (murine splenocytes [2]) | Relative quantity of RANTES in supernatant (murine splenocytes [2]) | Relative quantity of VEGF in supernatant (murine splenocytes [2]) | Effect on proliferation of resting splenocytes (murine splenocytes [1]; 10-2000 μg/mL, without ConA) | Stimulation index (SI), proliferation of resting splenocytes (murine splenocytes [1]; 500 μg/mL, without ConA) | Stimulation index (SI), proliferation of resting splenocytes (murine splenocytes [1]; 1000 μg/mL, without ConA) | Stimulation index (SI), proliferation of resting splenocytes (murine splenocytes [1]; 2000 μg/mL, without ConA) |
| --- | --- | --- | --- | --- | --- | --- | --- | --- | --- | --- | --- | --- | --- | --- |
| Asp-Thr-Asp-Tyr (DTDY; listed as Homo sapiens) [β-Lg f96-99] | inhibited | lost their stimulating capacity | 500 | 4.5 | 3.6 | 2.8 | 1.8 | 1.7 | 1.4 | 2.3 | – | – | – | – |
| GLDIQK (listed as Homo sapiens) [β-Lg f9-14] | – | lost their stimulating capacity | – | 1.7 | 2.6 | 1.0 | 1.4 | 1.1 | 1.0 | 2.0 | only a small stimulation at the highest concentration | – | – | – |
| His-Ile-Arg (HIR; listed as Homo sapiens) [β-Lg f146-148] | inhibited | lost their stimulating capacity | 500 | 8.6 | 2.1 | 1.8 | 0.5 | 1.4 | 0.8 | 4.8 | – | 1.20 | 1.36 | 1.37 |
